In BindingDB's records for doi:10.1021/jm0204035 (Glaxosmithkline, 2003):

Tests used:
[1] = target: Trans-2-enoyl-ACP reductase II (Streptococcus pneumoniae, UniProt Q9FBC5); assay: Enzyme Inhibition Assay; details: 30 °C
Method: (§1) Assays were carried out in half-area, 96-well microtiter plates. Compounds were evaluated in assay mixtures containing components specific for each enzyme. Inhibitors were varied over the range 0.01-10 uM. The consumption of NAD(P)H was monitored for 20 min at 30 °C by following the change in absorbance at 340 nm. IC50 values were estimated from a fit of the initial velocities to a standard equation.

[2] = target: T1, Enoyl-[acyl-carrier-protein] reductase [NADH] FabI (Escherichia coli (strain K12), UniProt P0AEK4); assay: Enzyme Inhibition Assay; details: pH 6.5; 30 °C
T1 sequence (P0AEK4 whole entry): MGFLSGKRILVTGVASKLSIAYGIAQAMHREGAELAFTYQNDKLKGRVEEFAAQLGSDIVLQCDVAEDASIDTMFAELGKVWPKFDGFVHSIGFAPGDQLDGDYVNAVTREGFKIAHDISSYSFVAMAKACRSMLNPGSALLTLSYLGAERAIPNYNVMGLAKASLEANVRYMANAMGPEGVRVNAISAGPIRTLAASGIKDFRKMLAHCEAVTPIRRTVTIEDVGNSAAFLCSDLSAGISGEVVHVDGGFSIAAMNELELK
Method: as §1

Sequence of Trans-2-enoyl-ACP reductase II (Q9FBC5 whole entry): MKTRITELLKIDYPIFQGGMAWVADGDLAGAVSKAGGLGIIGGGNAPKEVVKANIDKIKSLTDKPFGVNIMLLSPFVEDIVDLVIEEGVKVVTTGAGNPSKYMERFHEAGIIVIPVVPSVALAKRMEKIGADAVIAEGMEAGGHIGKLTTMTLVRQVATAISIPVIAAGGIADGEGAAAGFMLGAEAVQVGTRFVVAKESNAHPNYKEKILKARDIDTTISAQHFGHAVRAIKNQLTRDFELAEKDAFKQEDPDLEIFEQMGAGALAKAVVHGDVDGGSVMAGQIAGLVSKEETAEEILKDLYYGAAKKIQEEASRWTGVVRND

For `Oc1cc(Cl)ccc1Oc1ccc(Cl)cc1Cl`, the IC50 [1] was over 30 µM.

In the case of `Cc1cccc2c(CN(C)C(=O)/C=C/c3cnc4c(c3)CCC(=O)N4)c(C)n(C)c12` [(2E)-N-methyl-3-(7-oxo-5,6,7,8-tetrahydro-1,8-naphthyridin-3-yl)-N-[(1,2,7-trimethyl-1H-indol-3-yl)methyl]prop-2-enamide], the IC50 [1] is reported as over 30 µM and the IC50 [2] is reported as under 70 nM.

Compound `Cc1[nH]c2ccccc2c1CN(C)C(=O)/C=C/c1cnc2c(c1)CCC(=O)N2` [(2E)-N-methyl-N-[(2-methyl-1H-indol-3-yl)methyl]-3-(7-oxo-5,6,7,8-tetrahydro-1,8-naphthyridin-3-yl)prop-2-enamide] has an IC50 [2] of under 60 nM.

`Cc1c(CN(C)C(=O)/C=C/c2cnc3c(c2)CCC(=O)N3)c2ccccc2n1C` [(E)-N-(1,2-Dimethyl-1H-indol-3-ylmethyl)-N-methyl-3-(7-oxo-5,6,7,8-tetrahydro-1,8-naphthyridin-3-yl)acrylamide] showed an IC50 [1] of over 30 µM.
